# Assay results as given in paper PMC9516332 (Frontiers in Oncology, 2022).
# Read-outs that look alike come from different tables or passages of the source.
# Columns and labels:
# Assay in all cases: Kinase panel profiling at 1 µmol/L (MSA or IMAP), percentage inhibition
# Format in all cases: biochemical
# [1] = target: panel of 255 wild-type kinases (Homo sapiens, UniProt P27361); details: read-out: %-inhibition at 1 µmol/L, Erk1
# [2] = target: panel of 255 wild-type kinases (Homo sapiens, UniProt Q15303); details: read-out: %-inhibition at 1 µmol/L, HER4
# [3] = target: panel of 255 wild-type kinases (Homo sapiens, UniProt Q9H0K1); details: read-out: %-inhibition at 1 µmol/L, QIK
# [4] = target: panel of 255 wild-type kinases (Homo sapiens, UniProt P08581); details: MET; 1 µmol/L single concentration
# [5] = target: T1, panel of 255 wild-type kinases (Homo sapiens, UniProt Q13237); details: read-out: %-inhibition CGK2
# T1 sequence (Q13237 1-762): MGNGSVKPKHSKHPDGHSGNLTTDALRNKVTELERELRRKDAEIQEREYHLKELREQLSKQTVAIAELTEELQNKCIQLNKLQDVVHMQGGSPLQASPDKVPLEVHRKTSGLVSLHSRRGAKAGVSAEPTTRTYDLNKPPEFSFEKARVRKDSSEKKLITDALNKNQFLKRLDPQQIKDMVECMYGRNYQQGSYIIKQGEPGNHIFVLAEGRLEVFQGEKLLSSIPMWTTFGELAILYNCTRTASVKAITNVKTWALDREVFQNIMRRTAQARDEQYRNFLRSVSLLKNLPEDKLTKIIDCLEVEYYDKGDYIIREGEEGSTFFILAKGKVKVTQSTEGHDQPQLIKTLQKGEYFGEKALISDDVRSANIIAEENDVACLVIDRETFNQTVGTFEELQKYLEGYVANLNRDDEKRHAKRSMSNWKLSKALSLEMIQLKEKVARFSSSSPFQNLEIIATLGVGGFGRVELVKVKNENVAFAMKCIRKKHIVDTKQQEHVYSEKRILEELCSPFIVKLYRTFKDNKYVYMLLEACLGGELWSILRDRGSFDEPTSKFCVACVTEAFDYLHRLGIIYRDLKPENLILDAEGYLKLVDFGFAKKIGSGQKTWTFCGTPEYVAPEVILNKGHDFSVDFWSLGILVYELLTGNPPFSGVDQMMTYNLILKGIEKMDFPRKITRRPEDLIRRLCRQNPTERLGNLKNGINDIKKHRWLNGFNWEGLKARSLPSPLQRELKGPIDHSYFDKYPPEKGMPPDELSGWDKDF
# [6] = target: T2, panel of 255 wild-type kinases (Homo sapiens, UniProt P29320); details: read-out: %-inhibition at 1 µmol/L, EPHA3
# T2 sequence (P29320 21-983): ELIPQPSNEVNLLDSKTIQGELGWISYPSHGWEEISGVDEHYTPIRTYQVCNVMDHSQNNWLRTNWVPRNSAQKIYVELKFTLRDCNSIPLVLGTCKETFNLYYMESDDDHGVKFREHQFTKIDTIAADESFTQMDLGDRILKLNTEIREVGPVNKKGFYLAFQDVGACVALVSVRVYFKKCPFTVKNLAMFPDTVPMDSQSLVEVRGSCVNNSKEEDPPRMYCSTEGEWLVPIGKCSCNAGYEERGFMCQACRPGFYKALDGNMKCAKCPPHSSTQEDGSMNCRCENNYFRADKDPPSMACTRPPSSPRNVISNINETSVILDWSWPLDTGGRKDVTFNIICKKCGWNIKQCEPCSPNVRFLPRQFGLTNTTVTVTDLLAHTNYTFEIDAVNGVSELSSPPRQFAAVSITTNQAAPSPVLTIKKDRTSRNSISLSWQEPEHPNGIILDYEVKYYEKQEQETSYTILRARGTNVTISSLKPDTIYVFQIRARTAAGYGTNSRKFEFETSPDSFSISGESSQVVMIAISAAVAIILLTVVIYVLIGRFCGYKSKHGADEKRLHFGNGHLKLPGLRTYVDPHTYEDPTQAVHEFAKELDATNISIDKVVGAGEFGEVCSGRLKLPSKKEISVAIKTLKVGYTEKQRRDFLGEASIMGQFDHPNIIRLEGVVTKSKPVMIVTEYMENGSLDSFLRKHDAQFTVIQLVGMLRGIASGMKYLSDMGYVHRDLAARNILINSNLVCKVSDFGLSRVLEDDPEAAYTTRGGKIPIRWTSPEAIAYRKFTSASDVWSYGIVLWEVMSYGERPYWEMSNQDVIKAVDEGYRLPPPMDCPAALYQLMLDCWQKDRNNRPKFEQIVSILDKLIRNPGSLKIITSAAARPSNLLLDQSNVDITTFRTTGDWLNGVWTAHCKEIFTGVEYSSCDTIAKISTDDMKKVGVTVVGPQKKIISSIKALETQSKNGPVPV
# [7] = target: panel of 255 wild-type kinases (Homo sapiens, UniProt P53355); details: read-out: %-inhibition at 1 µmol/L, DAPK1
# [8] = target: panel of 255 wild-type kinases (Homo sapiens, UniProt Q5VT25); details: read-out: %-inhibition, MRCKα
# [9] = target: panel of 255 wild-type kinases (Homo sapiens, UniProt P05129); details: read-out: %-inhibition at 1 µmol/L, PKCγ
# [10] = target: panel of 255 wild-type kinases (Homo sapiens, UniProt P29597); details: read-out: %-inhibition at 1 µmol/L, TYK2
# [11] = target: panel of 255 wild-type kinases (Homo sapiens, UniProt P29317); details: read-out: %-inhibition at 1 µmol/L, EPHA2
# [12] = target: panel of 255 wild-type kinases (Homo sapiens, UniProt Q9H4B4); details: read-out: %-inhibition at 1 µmol/L, PLK3
# [13] = kinase Erk1, 1 µmol/L single concentration
# [14] = kinase HER4, 1 µmol/L single concentration
# [15] = kinase QIK, 1 µmol/L single concentration
# [16] = CGK2 kinase assay, 1 µmol/L single concentration
# [17] = kinase EPHA3, 1 µmol/L single concentration
# [18] = kinase DAPK1, 1 µmol/L single concentration
# [19] = MRCKα, 1 µmol/L single concentration
# [20] = kinase PKCγ, 1 µmol/L single concentration
# [21] = kinase TYK2, 1 µmol/L single concentration
# [22] = kinase EPHA2, 1 µmol/L single concentration
# [23] = kinase PLK3, 1 µmol/L single concentration
SMILES,"inhibition at 1 µM [1, 13]","inhibition at 1 µM [2, 14]","inhibition at 1 µM [3, 15]",inhibition at 1 µM [4],"inhibition at 1 µM [5, 16]","inhibition at 1 µM [6, 17]","inhibition at 1 µM [7, 18]","inhibition at 1 µM [8, 19]","inhibition at 1 µM [9, 20]","inhibition at 1 µM [10, 21]","inhibition at 1 µM [11, 22]","inhibition at 1 µM [12, 23]",also measured
Cc1nc(NC(=O)N2CCC[C@H]2C(N)=O)sc1-c1ccnc(C(C)(C)C(F)(F)F)c1 [alpelisib],-0.813%,2%,2.48%,-1%,-5%,-0.173%,-3%,-2%,-1.86%,-4%,-6%,1.89%,
Cn1cc(-c2cc3c(N4CCN(c5ncc([C@@](C)(N)c6ccc(F)cc6)cn5)CC4)ncnn3c2)cn1 [avapritinib],-1.84%,25%,44%,16%,4.65%,22%,0.0958%,4%,-2.11%,16%,60%,5.69%,
Cn1cnc2c(F)c(Nc3ccc(Br)cc3F)c(C(=O)NOCCO)cc21 [binimetinib],-4.32%,11%,-4%,0.851%,2.58%,0.248%,1.69%,-5.53%,0.893%,-4%,9%,-0.0416%,
CNC(=O)c1ccc(-c2cnc3ncc(Cc4ccc5ncccc5c4)n3n2)cc1F [capmatinib],,,,,,,,,,,,,inhibition at 1 µM [1]: 2.84%; inhibition at 1 µM [2]: 21%; inhibition at 1 µM [3]: -2.24%; inhibition at 1 µM [5]: -1.13%; inhibition at 1 µM [6]: -9%; inhibition at 1 µM [7]: -2.82%; inhibition at 1 µM [8]: 0.535%; inhibition at 1 µM [9]: 0.161%; inhibition at 1 µM [10]: 0.148%; inhibition at 1 µM [11]: -1%; inhibition at 1 µM [12]: 0.709%
COc1cc2ncnc(Nc3ccc(F)c(Cl)c3)c2cc1NC(=O)/C=C/CN1CCCCC1 [dacomitinib],2.66%,103%,68%,24%,10%,11%,-7%,4.59%,4%,6.51%,14%,3.6%,
C[C@H](Nc1ncnc2nc[nH]c12)c1cc2cccc(Cl)c2c(=O)n1-c1ccccc1 [duvelisib],2.77%,-0.702%,2.15%,1.63%,-0.775%,0.475%,-3.23%,-3.44%,-4.38%,2.8%,-6.36%,4.56%,
COC(=O)N[C@@H](C)CNc1nccc(-c2cn(C(C)C)nc2-c2cc(Cl)cc(NS(C)(=O)=O)c2F)n1 [encorafenib],-0.942%,14%,-0.749%,2.82%,0.267%,4%,-1%,0.0684%,4%,-6%,9%,0.929%,
CN1CCN(c2ccc(C(=O)Nc3n[nH]c4ccc(Cc5cc(F)cc(F)c5)cc34)c(NC3CCOCC3)c2)CC1 [entrectinib],-0.529%,32%,6.5%,24%,4.42%,30%,16%,-3.42%,1%,95%,37%,4.71%,
CCc1nc(C(N)=O)c(Nc2ccc(N3CCC(N4CCN(C)CC4)CC3)c(OC)c2)nc1NC1CCOCC1 [gilteritinib],1.85%,83%,63%,90%,82%,30%,71%,12%,19%,70%,66%,2.59%,
CCN1CCN(c2ccc(Nc3cc(N(C)C(=O)Nc4c(Cl)c(OC)cc(OC)c4Cl)ncn3)cc2)CC1 [infigratinib],-4%,26%,26%,0.848%,-2%,-0.311%,-3%,0.933%,0.114%,-3%,0.318%,-0.24%,
FC(F)(F)c1ccc(CNc2ccc(Cc3c[nH]c4ncc(Cl)cc34)cn2)cn1 [pexidartinib],2.66%,13%,11%,,17%,2.11%,-9%,0.771%,4.68%,19%,7.59%,12%,
